US7972611B2, “Fungus-induced inflammation and eosinophil degranulation” (Mayo Foundation for Medical Education and Research, priority 2005, dated 2011)
Like-named read-outs stand apart in the source and are kept apart here.

Legend:
[1] = tested on: eosinophils; assay type: cell-based, human; conditions: for eosinophil degranulation (EDN release) induced by Alternaria extract: 3 hours at 37° C.
Description: FIG. 9. […] Alternaria extract, trypsin, or PMA was pretreated with pepstatin A agarose, control agarose, or APMSF, and added to the PAR-2 peptide substrate (Panel A) or eosinophils (Panel B).
(§1) To monitor eosinophil function in response to extracts from Alternaria, degranulation of human eosinophils was measured by quantitating released eosinophil-derived neurotoxin (EDN) and/or MBP. In brief, freshly isolated eosinophils were suspended in HBSS with 25 mM HEPES and 0.01% gelatin at 5×10^5 cells/mL. Eosinophils and stimuli were incubated in 96-well tissue culture plates for 3 hours at 37° C. and 5% CO^2. Cell-free supernatants were stored at −20° C. A specific RIA quantitated eosinophil degranulation by measuring the concentration of EDN in the supernatants.

[2] = tested on: trypsin; experiment: Inhibition of trypsin cleavage of PAR-2 peptide substrate; assay type: biochemical
Text: (§2) FIG. 9. Effects of protease inhibitors on PAR-2 cleavage activity (Panel A) and EDN release activity (Panel B) of Alternaria extract. Alternaria extract, trypsin, or PMA was pretreated with pepstatin A agarose, control agarose, or APMSF, and added to the PAR-2 peptide substrate (Panel A) or eosinophils (Panel B). In Panel B, *, p<0.05 compared to no inhibitors, n=4.
(§3) A fluorescent quenched peptide substrate (Abz-SKGRSLIGK(Dnp)D) (SEQ ID NO:37), which spans the trypsin-cleavage site (between R and S) of PAR-2 was synthesized, and used it in an in vitro assay for PAR-2 cleavage and activation. […] Alternaria's activity was abolished when aspartate protease(s) was removed from the extract by pepstatin A agarose (FIG. 9); pepstatin A is a highly specific inhibitor for aspartate protease. […] Thus, an aspartate protease(s) in Alternaria extract, but not a serine protease(s), may be involved in the activation of eosinophils through PAR-2. this observation was confirmed by using other aspartate protease inhibitors, including alkalo-thermophilic bacillus inhibitor (ATBI), nelfinavir, and ritonavir.

[3] = tested on: aspartate protease(s) in Alternaria extract; experiment: Inhibition of PAR-2 cleavage activity of Alternaria extract; assay type: biochemical; conditions: extract pretreated with inhibitor
Text: as §2, §3

[4] = tested on: patients with CRS; experiment: Randomized, placebo-controlled, double-blind trial of intranasal amphotericin B in CRS patients; assay type: in vivo, human; conditions: 6 months
Description: Second, to address the efficacy of intranasal antifungal agents more objectively, a randomized, placebo-controlled, double-blind, single center trial was performed to treat 30 randomly selected CRS patients. Patients instilled 20 mL amphotericin B (250 μg/mL) or placebo to each nostril twice daily for 6 months. Twenty-four patients completed the 6 months of treatment. […] The changes in the endoscopic scores improved in the amphotericin B group compared to placebo (p=0.038). […] Some patients responded well to the treatment, but others not as well. Thus, fungi may be important in the development of CRS in certain patients.

[5] = tested on: patients with CRS; experiment: Open-label pilot trial of intranasal amphotericin B in CRS patients
Description: To examine the clinical significance of fungal colonization in CRS, two clinical trials were performed to examine the efficacy of anti-fungal agents. It was hypothesized that anti-fungal agents will reduce the fungal burden in the upper airways, resulting in less antigenic stimulation of immune cells, less airway inflammation, and improved clinical outcomes. […] This prospective, open-label trial used amphotericin B as a medical treatment in 51 randomly selected CRS patients. The antifungal was applied intranasally using 20 mL of a 100 μg/mL solution twice daily for a mean of 11 months (minimum of 3 months).

[6] = tested on: BEAS-2B cells; experiment: Cytokine production by BEAS-2B airway epithelial cells; assay type: cell-based, human
Description: FIG. 10. Effects of fungi on IL-6 production by BEAS-2B cells. BEAS-2B cells were incubated with culture extracts of various fungi for 24 hours. IL-6 concentrations in the supernatants were measured by ELISA. *, p<0.05 compared to medium alone, n=3.
FIG. 11. Effects of an aspartate protease inhibitor, ritonavir, on IL-8 production by BEAS-2B cells. Alternaria extract or TNF-α was pretreated with ritonavir and added to BEAS-2B cells. IL-8 concentrations in the supernatants were measured after 24 hours. Data are normalized to the values without ritonavir as 100%. *, p<0.05 compared to no inhibitor, n=4.
Eosinophils may be the only cell that can recognize Alternaria. […] BEAS-2B stimulated with Alternaria also produced other pro-inflammatory factors such as IL-8 and GM-CSF. This Alternaria-induced IL-6 production was inhibited by ATBI, nelfinavir, ritonavir or pepstatin A-agarose treatment of Alternaria extract by about 60% to 90%; ritonavir results are shown in FIG. 11. In contrast, TNF-α-induced IL-6 production was not affected by these treatments. […] Thus, through its aspartate protease activity, Alternaria may activate airway epithelial cells; this activation is partially mediated by PAR-2.

[7] = molecular target: T1, PAR-2 (Homo sapiens, UniProt P55085); experiment: Eosinophil calcium response to Alternaria extract after preincubation with PAR-2 peptides; assay type: cell-based; conditions: preincubation with peptide, 100 μM
T1 construct: endogenous in cells; host or cells: isolated human blood eosinophils
T1 sequence (P55085 26-397): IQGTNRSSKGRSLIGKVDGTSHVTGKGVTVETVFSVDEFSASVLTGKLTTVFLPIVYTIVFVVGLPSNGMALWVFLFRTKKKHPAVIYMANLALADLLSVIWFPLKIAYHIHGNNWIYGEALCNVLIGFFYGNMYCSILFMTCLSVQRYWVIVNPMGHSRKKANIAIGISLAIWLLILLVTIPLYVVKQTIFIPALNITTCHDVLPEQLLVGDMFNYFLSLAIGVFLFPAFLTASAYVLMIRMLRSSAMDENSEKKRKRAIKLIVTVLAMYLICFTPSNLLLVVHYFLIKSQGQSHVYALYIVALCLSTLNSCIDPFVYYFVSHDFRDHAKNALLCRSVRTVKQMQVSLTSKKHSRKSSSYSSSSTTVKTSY
Description: FIG. 8. Desensitization of eosinophil calcium response (Panel A) and EDN release (Panel B) by PAR-2 peptides. Cells were preincubated with PAR-2 agonist (SLIGKV; SEQ ID NO:38), PAR-2 antagonist (LSIGKV; SEQ ID NO:35) or control peptide (GLIVKS; SEQ ID NO:36) (all at 100 μM) before stimulation with Alternaria extract (Panel A) or with Alternaria extract, PAF or PMA (Panel B).
The majority of previous studies in anti-fungal immune responses used the following models: animal infection in in vivo systems (e.g., Candida albicans, Aspergillus fumigatus), or entire fungal hyphae or conidia (e.g., C. albicans, A. fumigatus), a yeast model (e.g., zymosan), and isolated fungal carbohydrate macromolecules (e.g., β-glucan, mannan) in in vitro systems. These studies pointed to roles for TLRs, in particular TLR2 and TLR4, and to other pattern recognition receptors that immune cells, such as macrophages and neutrophils, use to recognize fungi. Because eosinophils express little TLR2 or TLR4 and the active component(s) in Alternaria extract was a heat-labile molecule(s) with an approximate 30-50 kDa molecular mass (FIG. 6), it was speculated that an Alternaria-derived protease(s) (not carbohydrates), interacting with eosinophil PAR-2, may be involved in the eosinophils' responses to Alternaria. Sine no specific small molecule inhibitor for PAR-2 is available, a desensitization approach was used. […] In contrast, degranulation induced by PAF or PMA was not affected by the LSIGKV (SEQ ID NP:35) peptide. Thus, PAR-2 is likely involved in the eosinophils' calcium and degranulation responses to Alternaria extract.

[8] = tested on: PBMCs; experiment: PBMC CD4+ T cell proliferation by CFSE labeling; assay type: cell-based, human; conditions: side-by-side experiment, day 7
[9] = tested on: PAR-2 peptide substrate (Abz-SKGRSLIGK(Dnp)D); experiment: Fluorescent quenched PAR-2 peptide substrate cleavage assay; assay type: biochemical
Text: as §2, §3

[10] = tested on: human eosinophils; experiment: Eosinophil degranulation (EDN release) and activation by fungal extracts and proteins; assay type: cell-based; conditions: through PAR-2
Description: FIG. 5. Effects of fungi on eosinophil degranulation. Eosinophils were incubated with culture extracts of various fungi for 3 hours.
FIG. 21. Effects of Trichoderma xylanase on eosinophil degranulation (Panel A). Effects of Trichoderma xylanase on IL-5 production in mouse airways (Panel B). Panel A: Eosinophils were incubated with various concentrations of Trichoderma xylanase for 3 hours. EDN concentrations in the supernatants were measured by RIA as an indicator of degranulation. Panel B: Naive BALB/c mice were exposed intranasally to various doses of Trichoderma xylanase. After 12 hours, BAL fluids were collected and the concentrations of IL-5 were measured by ELISA. Mean±range, n=2.
FIG. 25. Partial characterization of Alternaria extract. A, Before incubation with eosinophils, aliquots of 100 μg/mL Alternaria and 10 ng/mL IL-5 were heated at 37, 56, or 100° C. for 30 min or were treated at 4° C. for 30 min. Eosinophils were incubated in duplicate with these treated stimuli for 3 hours at 37° C. […] The molecular weight calibration of the column is shown above the elution profile.
The following was performed to determine whether human eosinophils have an innate capacity to respond to environmental fungal organisms. Human eosinophils were incubated with extracts from common environmental airborne fungi.
as §1

Molecule: N=C(N)c1ccc(CS(=O)(=O)F)cc1 [APMSF]
- eosinophil degranulation (EDN release) induced by Alternaria extract [1]: not
- eosinophil degranulation (EDN release) induced by Alternaria extract ([1]; listed as APSF): did not inhibit
- PAR-2 peptide cleavage activity of trypsin [2]: inhibited the activity
- PAR-2 peptide cleavage activity of Alternaria extract [3]: insensitive

Molecule: C[C@@H]1[C@H](O)[C@@H](C)/C=C/C=C/C=C/C=C/C=C/C=C/C=C/[C@H](O[C@@H]2O[C@H](C)[C@@H](O)[C@H](N)[C@@H]2O)C[C@@H]2O[C@](O)(C[C@@H](O)C[C@@H](O)[C@H](O)CC[C@@H](O)C[C@@H](O)CC(=O)O[C@H]1C)C[C@H](O)[C@H]2C(=O)O [amphotericin B]
- change in intranasal mucus levels of EDN ([4]; increase in placebo group, p=0.046): a reduction
- changes in endoscopic scores compared to placebo ([4]; p=0.038): improved
- mucosal thickening on CT scans compared to placebo ([4]; 20 mL 250 μg/mL each nostril twice daily, p=0.030): reduced
- no effect seen, patients ([5]; 13/51 patients): 25%
- endoscopically disease free, patients ([5]; 18/51 patients): 35%
- endoscopically improved by at least one stage, patients ([5]; additional 20/51 patients): 39%
- improvement of sinusitis symptoms, patients ([5]; intranasal 20 mL of 100 μg/mL twice daily, mean 11 months, 38/51 patients): 75%
- inflammatory mucosal thickening on CT scans pre- and post-treatment ([5]; n=12): significant reduction
- safety of direct muco-administration ([5]; open-label pilot trial): safe

Molecule: Cc1c(O)cccc1C(=O)N[C@@H](CSc1ccccc1)[C@H](O)CN1C[C@H]2CCCC[C@H]2C[C@H]1C(=O)NC(C)(C)C [nelfinavir]
- TNF-α-induced IL-6 production by BEAS-2B cells [6]: not affected
- eosinophil degranulation (EDN release) induced by Alternaria extract [1]: confirmed

Molecule: CC(C)c1nc(CN(C)C(=O)N[C@H](C(=O)N[C@@H](Cc2ccccc2)C[C@H](O)[C@H](Cc2ccccc2)NC(=O)OCc2cncs2)C(C)C)cs1 [ritonavir]
- TNF-α-induced IL-6 production by BEAS-2B cells [6]: not affected
- eosinophil degranulation (EDN release) induced by Alternaria extract [1]: confirmed

Molecule: GLIVKS (Synthetically generated oligonucleotide) [control scramble peptide]
- eosinophils' calcium response to Alternaria extract [7]: showed no effects

Molecule: LSIGKV (Synthetically generated oligonucleotide) [PAR-2 antagonist]
- inhibition of Alternaria-induced IL-6 production by BEAS-2B cells ([6]; treatment of Alternaria extract or PAR-2 antagonist): ~40%
- eosinophil degranulation (EDN release) induced by Alternaria extract [1]: significantly and specifically inhibited
- eosinophil degranulation (EDN release) induced by Alternaria extract ([1]; listed as PAR2-inhibitory peptide): inhibited
- eosinophil degranulation induced by PAF ([1]; peptide 100 μM): not affected
- eosinophil degranulation induced by PMA ([1]; peptide 100 μM): not affected
- eosinophils' calcium response to Alternaria extract [7]: also inhibited

Molecule: SLIGKV (Synthetically generated oligonucleotide) [PAR-2 agonistic peptide]
- eosinophils' calcium response to Alternaria extract [7]: significantly inhibited

Molecule: alkalo-thermophilic bacillus inhibitor [ATBI]
- TNF-α-induced IL-6 production by BEAS-2B cells [6]: not affected
- eosinophil degranulation (EDN release) induced by Alternaria extract [1]: confirmed

Molecule: tetanus toxoid: tetanus toxoid
- CFSElow CD4+ cells ([8]; CRS patient): 43.2%
- CFSElow CD4+ cells ([8]; normal individual): 47.9%

B1: trypsin: serine protease, positive control (protein, UniProt P00760 24-246, looked up)
Serine protease 1: IVGGYTCGANTVPYQVSLNSGYHFCGGSLINSQWVVSAAHCYKSGIQVRLGEDNINVVEGNEQFISASKSIVHPSYNSNTLNNDIMLIKLKSAASLNSRVASISLPTSCASAGTQCLISGWGNTKSSGTSYPDVLKCLKAPILSDSSCKSAYPGQITSNMFCAGYLEGGKDSCQGDSGGPVVCSGKLQGIVSWGSGCAQKNKPGVYTKVCNYVSWIKQTIASN
- cleavage of PAR-2 peptide substrate [9]: clearly cleaved
- activation of human eosinophils by proteases [10]: activated
